In patent US12565475B2, “Small molecule compound inhibiting signal transmission path of TLR7 and TLR9 and use thereof” (AJOU UNIVERSITY INDUSTRY-ACADEMIC COOPERATION FOUNDATION, priority 2019, dated 2026):

Key:
TLR9 [1] = target: T1, TLR9 (Homo sapiens, UniProt Q9NR96); settings: Target TLR9; values from cited literature/patent; cited from earlier work
T1 sequence (Q9NR96 26-1032): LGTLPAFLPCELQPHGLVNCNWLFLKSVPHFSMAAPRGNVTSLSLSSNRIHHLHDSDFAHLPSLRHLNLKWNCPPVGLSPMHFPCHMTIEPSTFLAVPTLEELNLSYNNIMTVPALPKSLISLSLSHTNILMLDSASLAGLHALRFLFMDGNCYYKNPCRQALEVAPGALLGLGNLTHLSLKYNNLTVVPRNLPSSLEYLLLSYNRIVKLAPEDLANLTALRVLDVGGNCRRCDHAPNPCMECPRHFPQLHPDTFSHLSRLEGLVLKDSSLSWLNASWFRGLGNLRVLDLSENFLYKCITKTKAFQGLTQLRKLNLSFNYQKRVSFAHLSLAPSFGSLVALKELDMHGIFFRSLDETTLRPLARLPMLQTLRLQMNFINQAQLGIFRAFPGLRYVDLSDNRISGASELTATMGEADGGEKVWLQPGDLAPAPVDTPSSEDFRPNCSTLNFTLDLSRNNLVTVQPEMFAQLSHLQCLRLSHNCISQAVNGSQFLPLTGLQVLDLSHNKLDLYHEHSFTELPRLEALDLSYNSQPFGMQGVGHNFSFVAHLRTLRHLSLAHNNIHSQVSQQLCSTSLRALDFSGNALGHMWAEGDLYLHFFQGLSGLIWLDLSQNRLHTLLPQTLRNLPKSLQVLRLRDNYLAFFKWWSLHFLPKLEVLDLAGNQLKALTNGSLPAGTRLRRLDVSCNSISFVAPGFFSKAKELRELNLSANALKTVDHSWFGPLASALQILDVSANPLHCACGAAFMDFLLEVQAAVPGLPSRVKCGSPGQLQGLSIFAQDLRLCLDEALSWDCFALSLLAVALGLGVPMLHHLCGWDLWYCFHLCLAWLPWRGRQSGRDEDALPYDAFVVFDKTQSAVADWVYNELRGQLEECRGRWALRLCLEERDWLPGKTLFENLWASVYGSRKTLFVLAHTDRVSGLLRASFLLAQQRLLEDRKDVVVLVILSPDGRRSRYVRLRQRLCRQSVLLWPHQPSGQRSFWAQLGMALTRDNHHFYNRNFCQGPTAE

TLR7 = target: T2, TLR7 (Mus musculus, UniProt P58681); assay: TLR7-mediated TNF-α secretion (imiquimod stimulation), ELISA; format: cell-based, murine; settings: for inhibitory efficacy on TLR7-mediated TNF-α secretion: RAW 264.7, 10 or 50 μM, imiquimod (FIG. 4B)
T2 construct: endogenous in cells; host or cells: RAW 264.7
T2 sequence (P58681 27-1050): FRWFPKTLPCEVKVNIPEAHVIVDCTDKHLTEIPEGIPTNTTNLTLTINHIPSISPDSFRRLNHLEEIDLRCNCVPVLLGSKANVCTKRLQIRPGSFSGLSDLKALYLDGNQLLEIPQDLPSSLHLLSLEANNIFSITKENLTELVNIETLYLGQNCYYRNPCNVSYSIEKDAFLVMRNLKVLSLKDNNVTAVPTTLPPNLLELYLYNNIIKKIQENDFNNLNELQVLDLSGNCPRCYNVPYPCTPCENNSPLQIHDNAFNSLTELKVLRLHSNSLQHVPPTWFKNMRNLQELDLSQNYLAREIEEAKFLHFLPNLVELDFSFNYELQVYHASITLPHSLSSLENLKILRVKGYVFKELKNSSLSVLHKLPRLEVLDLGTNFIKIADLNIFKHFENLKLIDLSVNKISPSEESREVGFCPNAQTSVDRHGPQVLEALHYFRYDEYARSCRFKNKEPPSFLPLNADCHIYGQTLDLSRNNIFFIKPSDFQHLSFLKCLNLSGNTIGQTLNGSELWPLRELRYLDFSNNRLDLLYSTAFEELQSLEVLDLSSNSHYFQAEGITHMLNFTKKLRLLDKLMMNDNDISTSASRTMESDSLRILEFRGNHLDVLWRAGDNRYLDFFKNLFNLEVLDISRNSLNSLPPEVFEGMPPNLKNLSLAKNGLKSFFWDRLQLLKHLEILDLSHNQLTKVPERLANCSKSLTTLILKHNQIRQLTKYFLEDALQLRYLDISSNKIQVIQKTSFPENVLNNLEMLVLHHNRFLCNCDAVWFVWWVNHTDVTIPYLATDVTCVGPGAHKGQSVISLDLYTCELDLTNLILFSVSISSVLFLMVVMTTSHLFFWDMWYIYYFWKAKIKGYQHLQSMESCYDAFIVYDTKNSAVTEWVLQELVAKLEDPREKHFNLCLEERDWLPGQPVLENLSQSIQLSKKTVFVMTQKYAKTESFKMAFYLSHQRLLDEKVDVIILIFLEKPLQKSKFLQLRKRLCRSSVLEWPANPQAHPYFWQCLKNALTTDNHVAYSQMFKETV
Description: (§1) Agonists specific to TLR1/TLR2 (Pam3CSK4), TLR2/TLR6 (FSL-1), TLR3 (Poly I:C), TLR7 (imiquimod), and TLR8 (TL8-506) were purchased from InvivoGen Ltd. (Hong-Kong, China), and a TLR4-specific agonist (LPS from E. coli O111:B4) was purchased from Sigma-Aldrich, Inc. For TLR9-specific stimulation, class C CpG-ODN (ODN2395, 5′-TCGTCGTTTTCGGCGCGCGCCG-3′) having full phosphorothioate backbone modification was synthesized (Bioneer, Inc., Daejeon, Korea). All TLR agonists were dissolved in deionized water and applied to a culture media for TLR activation. The cells were treated with test compounds or a control medium for 1 hour, and then stimulated with a TLR agonist for 4 hours, or 24 hours in the case of poly(I:C), and the cytokine secretion was monitored.
(§2) RAW 264.7 or differentiated THP-1 cell lines were seeded onto a 96-well culture plate at a density of 2×10^4 cells/well. The cells were treated with test compounds for 1 hour followed by the stimulation with TLR agonists for 4 hours. The supernatant was transferred to pre-coated assay plates, and the secretion levels of mouse and human TNF-α were measured by respective ELISA kits (Invitrogen, Carlsbad, CA, USA). All experiments were performed according to the manufacturer's instructions. Absorbance was measured by a microplate reader spectrophotometer (Molecular Devices, Inc., San Jose, CA, USA), and data was interpolated from a standard curve using SoftMax Pro 5.3 software (Molecular Devices, Inc.).
(§3) In order to evaluate the antagonistic effect of each compound on TLR7/TLR9 through ELISA (enzyme-linked immunosorbent assay), RAW 264.7 cells were pretreated with the eight compounds followed by the stimulation with a TLR7-specific agonist (imiquimod, 3.61 μM) or with a TLR9-specific agonist (ODN2395, 0.5 μM). […] Since the two ligands had no agonistic effect per se (FIG. 3B), the increased cytokine production may be due to cell activation (or non-specific cellular stress) by co-treatment. Consequently, TIC10 was selected as the most suitable lead for further optimization to improve the inhibitory potency against both TLR7 and TLR9.

TLR9 [2] = target: T3, TLR9 (Mus musculus, UniProt Q9EQU3); assay: TLR9-mediated TNF-α secretion (ODN2395 stimulation), ELISA; format: cell-based, murine; settings: for inhibitory efficacy on TLR9-mediated TNF-α secretion: RAW 264.7, 10 or 50 μM, ODN2395 (FIG. 4A)
T3 construct: endogenous in cells; host or cells: RAW 264.7
T3 sequence (Q9EQU3 26-1032): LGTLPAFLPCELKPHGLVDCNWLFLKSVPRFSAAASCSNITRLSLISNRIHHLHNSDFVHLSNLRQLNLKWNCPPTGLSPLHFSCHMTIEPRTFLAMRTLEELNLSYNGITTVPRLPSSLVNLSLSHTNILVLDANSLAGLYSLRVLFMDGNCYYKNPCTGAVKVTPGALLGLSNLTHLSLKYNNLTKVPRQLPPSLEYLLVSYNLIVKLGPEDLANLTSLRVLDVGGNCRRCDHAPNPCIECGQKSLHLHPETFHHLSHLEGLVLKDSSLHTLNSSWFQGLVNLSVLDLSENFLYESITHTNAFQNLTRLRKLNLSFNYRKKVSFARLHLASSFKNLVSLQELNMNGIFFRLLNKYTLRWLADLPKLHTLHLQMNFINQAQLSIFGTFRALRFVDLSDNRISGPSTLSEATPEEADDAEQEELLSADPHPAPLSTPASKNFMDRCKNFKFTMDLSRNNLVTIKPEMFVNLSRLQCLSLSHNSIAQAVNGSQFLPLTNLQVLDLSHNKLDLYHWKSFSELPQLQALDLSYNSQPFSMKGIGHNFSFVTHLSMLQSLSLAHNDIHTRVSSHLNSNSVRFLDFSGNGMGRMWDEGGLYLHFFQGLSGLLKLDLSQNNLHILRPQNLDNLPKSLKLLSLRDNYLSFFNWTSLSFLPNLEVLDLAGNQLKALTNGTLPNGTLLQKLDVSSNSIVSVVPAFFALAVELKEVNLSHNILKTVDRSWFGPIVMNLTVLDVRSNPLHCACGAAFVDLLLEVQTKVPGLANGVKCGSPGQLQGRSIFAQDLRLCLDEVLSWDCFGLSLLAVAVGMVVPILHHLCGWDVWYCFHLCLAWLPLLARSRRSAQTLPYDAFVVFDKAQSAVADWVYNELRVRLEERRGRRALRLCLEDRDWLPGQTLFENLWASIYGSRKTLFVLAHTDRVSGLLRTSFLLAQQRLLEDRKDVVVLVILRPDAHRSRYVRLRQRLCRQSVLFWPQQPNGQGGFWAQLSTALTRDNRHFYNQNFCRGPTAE
Description: as §1, §2, §3

RAW 264.7 cells [3] = assay: MTT cell viability / cytotoxicity assay; format: cell-based, murine; settings: 50 μM, 24 hours
Description: RAW 264.7 cells were seeded onto 96-well cell culture plate at a density of 2×10^4 cells/well and allowed to stabilize overnight. The cells were treated with test compounds or a negative control (DMSO; dimethyl sulfoxide) for 24 hours, where the final DMSO concentration of the treated well was 0.25%. Then, the medium was removed, and 500 μg/ml of an MTT (3-(4,5-dimethylthiazol-2-yl)-2,5-diphenyltetrazolium bromide, InvivoGen Ltd.) solution was added to each well. After 3 hours, the solution was replaced with DMSO (Biosesang Co. Ltd., Korea), and incubated for an additional 30 minutes to complete formazan dissolution. Absorbance was measured by a microplate colorimetric reader at a wavelength of 595 nm and normalized to the control for the determination of the cell viability. All incubations were performed under the same conditions as described above.
Before testing the antagonistic properties of the selected compounds, an MTT (3-(4,5-dimethylthiazol-2-yl)-2,5-diphenyltetrazolium bromide) assay was performed, whereby the cytotoxicity of the compounds in a murine macrophage cell line (RAW 264.7) was monitored. […] The other ligands were excluded as test subjects due to the high cytotoxicity thereof.

RAW 264.7 cells [4] = assay: Agonistic activity: TNF-α secretion after stimulation with compound alone (ELISA); format: cell-based, murine; settings: compound alone 24 hours

Compound | IC50 (TLR9 [1]) [µM] | inhibitory efficacy on TLR7-mediated TNF-α secretion (TLR7) | inhibitory efficacy on TLR9-mediated TNF-α secretion (TLR9 [2]) | further results
CN1CCN(c2ccc(-c3nc(NCCN4CCOCC4)c4ccccc4n3)cc2)CC1 [CHEMBL457704] | 0.02 | – | – | –
CN(C)CCNc1nc(-c2ccc(N3CCN(C)CC3)cc2)nc2ccccc12 [CHEMBL515364] | 0.03 | – | – | –
COc1cc2nc(-c3ccc(N4CCN(C)CC4)cc3)nc(NCCN3CCOCC3)c2cc1OC [CPG-52364] | 0.0046 | – | – | –
COc1ccc(-c2cnc(NCc3cccc(OC)c3O)n2C)cc1 [TIC10, 2-methoxy-6-({[5-(4-methoxyphenyl)-1-methyl-1H-imidazol-2-yl]amino}methyl)phenol] | – | – | – | inhibition of TLR7-mediated TNF-α secretion (TLR7; RAW 264.7, at 50 µM, pretreated 1 hour, imiquimod 3.61 μM 4 hours): inhibited; inhibition of TLR9-mediated TNF-α secretion (TLR9 [2]; RAW 264.7, 50 μM, pretreated 1 hour, ODN2395 0.5 μM 4 hours): significantly inhibit; cytotoxicity (MTT assay) (RAW 264.7 cells [3]): non-toxic or marginally toxic; expression of proinflammatory cytokine TNF-α on stimulation with ligand alone (agonistic role) (RAW 264.7 cells [4]): did not induce the expression of proinflammatory cytokine TNF-α
CCOc1ccc(-c2cnc(NCc3ccc(OC)c(OC)c3OC)n2C)cc1 [TIC10-3] | – | improved inhibitory efficacy compared to TIC10 | improved inhibitory efficacy compared to TIC10 | –
CCOc1ccc(-c2cnc(NCc3cccc(OC)c3OC)n2C)cc1 [TIC10-8] | – | improved inhibitory efficacy compared to TIC10 | improved inhibitory efficacy compared to TIC10 | –
